Measured values as given in US20260294925A1, “CELL PROLIFERATION MODULATORS AND USES THEREOF” (Kumquat Biosciences Inc., priority 2023, published 2026).

Tests used:
[1] = Toxicity / body weight observation in Ba/F3 allograft mice; assay type: in vivo, mouse; settings: Ba/F3 T315I allograft NOD/SCID mice, oral gavage, single agents and combinations
Source text: Mice were maintained under specific pathogen-free conditions, and food and water were provided ad libitum. A mouse Ba/F3 cell line that expresses a p210 […] fusion and T315I mutation was implanted subcutaneously (1×10^6 cells per mouse) into the right flank of female 6- to 8-week-old NOD/SCID mice. Mice were monitored daily, weighed up to three times weekly, and caliper measurements began when tumors became visible. Animals were randomly assigned to treatment groups as indicated in FIG. 2 by an algorithm that assigns animals to groups to achieve best case distributions of mean tumor size with lowest possible standard deviation. Tumor volume was calculated by measuring two perpendicular diameters using the following formula: (L×w^2)/2, in which L and w refer to the length and width of the tumor diameter, respectively. When tumors reached an average size of ~100 mm^3, mice were randomized and treated with vehicle, a SOS1 inhibitor of the present disclosure (Compound A), asciminib, ponatinib, Compound A and asciminib, or Compound A and ponatinib by oral gavage at the indicated dose and schedule.

KCL22-r xenograft = test: KCL22-r (dasatinib-refractory) xenograft study (FIG. 7); assay type: in vivo, mouse; settings: dasatinib monotherapy
Procedure: Mice were maintained under specific pathogen-free conditions, and food and water were provided ad libitum. Female 6- to 8-week-old athymic BALB/c nude (NCr) nu/nu mice were used to inoculate Ph+ CML cell lines. For example, KCL22-s cells (5×10^6) were harvested on the day of use and injected in growth-factor-reduced Matrigel/PBS (50% final concentration in 100 μL). One flank was inoculated subcutaneously per mouse. Mice were monitored daily, weighed twice weekly, and caliper measurements began when tumors became visible. Animals were randomly assigned to treatment groups as indicated in FIG. 1 by an algorithm that assigns animals to groups to achieve best case distributions of mean tumor size with lowest possible standard deviation. Tumor volume was calculated by measuring two perpendicular diameters using the following formula: (L×w^2)/2, in which L and w refer to the length and width of the tumor diameter, respectively. When tumors reached an average size of 100 mm^3, mice were randomized and treated with vehicle (20% Dexolve) or indicated compounds using a daily or twice daily schedule by oral gavage. Results are expressed as mean and […]. […] Combination treatment with dasatinib renders more than 90% complete responses. […]

SMILES | toxicity or body weight loss [1] | response of KCL22-r model to dasatinib (KCL22-r xenograft)
O=C(Nc1ccc(OC(F)(F)Cl)cc1)c1cnc(N2CC[C@@H](O)C2)c(-c2ccn[nH]2)c1 [asciminib] | No apparent toxicity or body weight loss was observed | –
Cc1nc(Nc2ncc(C(=O)Nc3c(C)cccc3Cl)s2)cc(N2CCN(CCO)CC2)n1 [dasatinib] | – | dasatinib-refractory tumor
Cc1ccc(C(=O)Nc2ccc(CN3CCN(C)CC3)c(C(F)(F)F)c2)cc1C#Cc1cnc2cccnn12 [ponatinib] | No apparent toxicity or body weight loss was observed | –
